In patent publication US9474790B2, “Stable, protracted GLP-1/glucagon receptor co-agonists for medical use” (Novo Nordisk A/S, priority 2013, dated 2016):
Numbered stars: 1 amine (or outer) side, 2 acyl side, 3 side chain; on linkers, the order of the positions; unused ones are H or OH. Bridge positions count the residues as written; N and C are the ends. Square brackets hold non-standard residues; d marks the D form. Side chains are listed from the residue outwards. Peptide text beside a SMILES is read from it. I, II: the chains in the order shown. * marks the point of attachment. C18 diacid = O=C(O)CCCCCCCCCCCCCCCCC(=O)*; γGlu = O=C(O)[C@H](CCC(=O)[*:2])N[*:1]; Ac4c = NC1(C(=O)O)CCC1; AEEA = NCCOCCOCC(=O)O; Aib = CC(C)(N)C(=O)O

Molecular target: T1, human glucagon receptor (Homo sapiens, UniProt P47871)
T1 construct: expressed in transfected cells; host or cells: BHK cells (parent BHK570, CRE luciferase clone BHK/KZ10-20-48), clone pLJ6'-4-25
Experiment: Glucagon receptor binding, 125I-glucagon displacement SPA on isolated membranes
Details: displacement of 125I-glucagon from membranes; read-out: IC50 GlucR
Experimental: The purpose of this assay was to test the in vitro receptor binding activity (i.e. affinity) of the glucagon derivatives of the invention. The receptor binding activity is a measure of affinity of a derivative for the human glucagon receptor.
The receptor binding of each compound to the human glucagon receptor was measured in a displacement binding assay. In this type of assay a labelled ligand (in this case 125I-glucagon) is bound to the receptor. Each derivative was added in a series of concentrations to isolated membranes containing the human glucagon receptor and displacement of the labelled ligand is monitored. The receptor binding was reported as the concentration at which half of the labelled ligand is displaced from the receptor, the IC50 value.
In order to test the binding of the derivatives to albumin, the assay may be performed in a very low concentration of serum albumin (max. 0.001% final assay concentration) as well as in the presence of a higher concentration of serum albumin (0.2% final assay concentration). An increase of the IC50 value, in the presence of serum albumin indicates an affinity to serum albumin and represents a method to predict a protracted pharmacokinetic profile of the test substance in animal models.
The following chemicals were used in the assay: DMEM w Glutamax (Gibco 61965-026), Pen/strep (Invitrogen 15140-122), G418 (Invitrogen 10131-027), Versene (Gibco 15040), 1 M Hepes (Gibco 15630), PBS (Invitrogen 14190-094), fetal calf serum (Invitrogen 16140-071), MgCl2 (Merck 1.05832.1000), EDTA (Invitrogen 15575-038), CaCl2 (Sigma, C5080), Tween 20 (Amresco 0850C335), ovalbumin (Sigma A5503), SPA particles (wheat germ agglutinin (WGA) SPA beads, Perkin Elmer RPNQ0001), [125I]-glucagon (produced in-house), OptiPlate™-96 (Packard 6005290).
HME buffer consisted of 25 mM HEPES, 2 mM MgCl2 and 1 mM EDTA, and pH was adjusted to 7.4. Assay buffer consisted of 50 mM HEPES supplemented with 5 mM MgCl2, 1 mM CaCl2, 0.02% Tween 20 and 0.1% Ovalbumin, and pH was adjusted to 7.4.
The cells used in this assay (clone BHK hGCGR A3*25) were BHK cells stable transfected with an expression plasmid containing the cDNA encoding the human glucagon receptor.
The cells were grown at 5% CO2 in DMEM, 10% fetal calf serum, 1% Pen/Strep (Penicillin/Streptomycin) and 1.0 mg/ml of the selection marker G418. To make a membrane preparation the cells were grown to approximately 80% confluence. The cells were washed twice in phosphate-buffered saline and harvested. The cells were pelleted using a brief centrifugation and the cell pellet was kept on ice. Lyse the cells by adding approx. 5 ml HME buffer, mix by pipetting and snap freeze in liquid nitrogen. Thaw quickly and add HME buffer to 10 ml. The cell pellet was homogenised with an ULTRA-THURRAX dispersing instrument for 20-30 sec. The homogenate was centrifuged at 20.000×G, 4° C. for 10 min. The pellet was re-suspended (homogenised) in 1-2 ml HME buffer. The protein concentration was determined. The membranes were aliquoted and snap-frozen in liquid nitrogen and stored at minus 80° C.
1. For the receptor binding assay, 50 μl of the assay buffer was added to each well of an assay plate.
2. Test compounds were serially diluted to give the following concentrations: 8×10EE-7 M, 8×10EE-8 M, 8×10EE-9 M, 8×10EE-10 M, 8×10EE-11 M, 8×10EE-12 M and 8×10EE-13 M. Twenty-five μl were added to appropriate wells in the assay plate.
3. Cell membrane aliquots were thawed and diluted to their working concentration. Fifty μl were added to each well in the assay plate.
4. WGA SPA beads were suspended in assay buffer at 20 mg/ml. The suspension was diluted to 10 mg/ml in assay buffer just prior to addition to the assay plate. Fifty μl were added to each well in the assay plate.
5. The incubation was started by adding 25 μl of 480 pM solution of [125I]-glucagon to each well of the assay plate. A 25 μl aliquot was reserved for measuring total counts/well.
6. The assay plate was incubated for 2 h at 25° C.
7. […]

T1 sequence (P47871 26-477): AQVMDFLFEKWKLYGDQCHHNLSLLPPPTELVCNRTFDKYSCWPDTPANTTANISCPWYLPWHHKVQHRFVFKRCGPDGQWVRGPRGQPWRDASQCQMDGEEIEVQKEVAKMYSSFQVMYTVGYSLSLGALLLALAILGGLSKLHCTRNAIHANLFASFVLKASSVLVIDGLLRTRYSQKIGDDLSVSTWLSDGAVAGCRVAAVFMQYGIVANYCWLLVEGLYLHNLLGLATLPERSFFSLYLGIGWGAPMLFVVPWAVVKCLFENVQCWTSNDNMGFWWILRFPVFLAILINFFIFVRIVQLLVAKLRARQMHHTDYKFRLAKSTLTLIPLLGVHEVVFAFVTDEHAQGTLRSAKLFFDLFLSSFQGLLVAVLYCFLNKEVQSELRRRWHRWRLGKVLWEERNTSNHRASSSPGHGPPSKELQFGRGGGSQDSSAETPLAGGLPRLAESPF

Row | IC50 [nM] | Compound
1 | 0.5 | CC(C)C[C@H](NC(=O)[C@H](Cc1ccc(O)cc1)NC(=O)[C@H](CCCCN)NC(=O)[C@H](CO)NC(=O)[C@H](CC(C)C)NC(=O)[C@H](CC(=O)O)NC(=O)[C@H](CO)NC(=O)[C@@H](NC(=O)[C@H](Cc1ccccc1)NC(=O)[C@@H](NC(=O)CNC(=O)[C@H](Cc1c[nH]cn1)NC(=O)C(C)(C)NC(=O)[C@@H](N)Cc1c[nH]cn1)[C@@H](C)O)[C@@H](C)O)C(=O)N[C@@H](CCC(=O)O)C(=O)N[C@@H](CO)C(=O)N[C@@H](CCCNC(=N)N)C(=O)N[C@@H](CCCNC(=N)N)C(=O)N[C@@H](C)C(=O)N[C@@H](CCCNC(=N)N)C(=O)N[C@@H](CCC(=O)O)C(=O)N[C@@H](Cc1ccccc1)C(=O)N[C@H](C(=O)N[C@@H](CCC(N)=O)C(=O)N[C@@H](Cc1c[nH]c2ccccc12)C(=O)N[C@@H](CC(C)C)C(=O)N[C@@H](CC(C)C)C(=O)N[C@@H](CCCCNC(=O)CC[C@H](NC(=O)COCCOCCNC(=O)COCCOCCNC(=O)CC[C@H](NC(=O)CC[C@H](NC(=O)CCCCCCCCCCCCCCCCC(=O)O)C(=O)O)C(=O)O)C(=O)O)C(=O)N[C@H](C(N)=O)[C@@H](C)O)C(C)C [Example 30, N^ε28-[(4S)-4-carboxy-4-[[2-[2-[2-[[2-[2-[2-[[(4S)-4-carboxy-4-[[(4S)-4-carboxy-4-(17-carboxyheptadecanoylamino)butanoyl]amino]butanoyl]amino]ethoxy]ethoxy]acetyl]amino]ethoxy]ethoxy]acetyl]amino]butanoyl]-[Aib2,His3,Leu10,Glu15,Arg20,Glu21,Leu27,Lys28]-Glucagon amide] (H-H[Aib]HGTFTSDLSKYLESRRAREFVQWLLK([γGlu-AEEA-AEEA-γGlu-γGlu-C18 diacid])T-NH2; N-terminus assumed)
2 | 2 | CC(C)C[C@H](NC(=O)[C@H](Cc1ccc(O)cc1)NC(=O)[C@H](CCCCN)NC(=O)[C@H](CO)NC(=O)[C@H](CC(C)C)NC(=O)[C@H](CC(=O)O)NC(=O)[C@H](CO)NC(=O)[C@@H](NC(=O)[C@H](Cc1ccccc1)NC(=O)[C@@H](NC(=O)CNC(=O)[C@H](Cc1c[nH]cn1)NC(=O)C(C)(C)NC(=O)[C@@H](N)Cc1c[nH]cn1)[C@@H](C)O)[C@@H](C)O)C(=O)N[C@@H](CCC(=O)O)C(=O)N[C@@H](CO)C(=O)N[C@@H](CCCNC(=N)N)C(=O)N[C@@H](CCCNC(=N)N)C(=O)N[C@@H](C)C(=O)N[C@@H](CCCNC(=N)N)C(=O)N[C@@H](CCC(=O)O)C(=O)N[C@@H](Cc1ccccc1)C(=O)N[C@H](C(=O)N[C@@H](CCC(N)=O)C(=O)N[C@@H](Cc1c[nH]c2ccccc12)C(=O)N[C@@H](CC(C)C)C(=O)N[C@@H](CC(C)C)C(=O)N[C@@H](CCCCNC(=O)CC[C@H](NC(=O)CC[C@H](NC(=O)COCCOCCNC(=O)COCCOCCNC(=O)CC[C@H](NC(=O)CCCCCCCCCCCCCCCCC(=O)O)C(=O)O)C(=O)O)C(=O)O)C(=O)N[C@H](C(N)=O)[C@@H](C)O)C(C)C [Example 33, N^ε28-[(4S)-4-carboxy-4-[[(4S)-4-carboxy-4-[[2-[2-[2-[[2-[2-[2-[[(4S)-4-carboxy-4-(17-carboxyheptadecanoylamino)butanoyl]amino]ethoxy]ethoxy]acetyl]amino]ethoxy]ethoxy]acetyl]amino]butanoyl]amino]butanoyl]-[Aib2,His3,Leu10,Glu15,Arg20,Glu21,Leu27,Lys28]-Glucagon amide] (H-H[Aib]HGTFTSDLSKYLESRRAREFVQWLLK([γGlu-γGlu-AEEA-AEEA-γGlu-C18 diacid])T-NH2; N-terminus assumed)
3 | 0.2 | CC(C)C[C@H](NC(=O)[C@H](Cc1ccc(O)cc1)NC(=O)[C@H](CCCCN)NC(=O)[C@H](CO)NC(=O)[C@H](CC(C)C)NC(=O)[C@H](CC(=O)O)NC(=O)[C@H](CO)NC(=O)[C@@H](NC(=O)[C@H](Cc1ccccc1)NC(=O)[C@@H](NC(=O)CNC(=O)[C@H](Cc1c[nH]cn1)NC(=O)C(C)(C)NC(=O)[C@@H](N)Cc1c[nH]cn1)[C@@H](C)O)[C@@H](C)O)C(=O)N[C@@H](CCC(=O)O)C(=O)N[C@@H](CO)C(=O)N[C@@H](CCCCN)C(=O)N[C@@H](CCCNC(=N)N)C(=O)N[C@@H](C)C(=O)N[C@@H](CCCNC(=N)N)C(=O)N[C@@H](CCC(=O)O)C(=O)N[C@@H](Cc1ccccc1)C(=O)N[C@H](C(=O)N[C@@H](CCC(N)=O)C(=O)N[C@@H](Cc1c[nH]c2ccccc12)C(=O)N[C@@H](CC(C)C)C(=O)N[C@@H](CC(C)C)C(=O)N[C@@H](CCCCNC(=O)CC[C@H](NC(=O)CC[C@H](NC(=O)CC[C@H](NC(=O)CCCCCCCCCCCCCCCCC(=O)O)C(=O)O)C(=O)O)C(=O)O)C(=O)N[C@H](C(N)=O)[C@@H](C)O)C(C)C [Example 34, N^ε28-[(4S)-4-carboxy-4-[[(4S)-4-carboxy-4-[[(4S)-4-carboxy-4-(17-carboxyheptadecanoylamino)butanoyl]amino]butanoyl]amino]butanoyl]-[Aib2,His3,Leu10,Glu15,Lys17,Arg20,Glu21,Leu27,Lys28]-Glucagon amide] (H-H[Aib]HGTFTSDLSKYLESKRAREFVQWLLK([γGlu-γGlu-γGlu-C18 diacid])T-NH2; N-terminus assumed)
4 | 0.7 | CC(C)C[C@H](NC(=O)[C@H](Cc1ccc(O)cc1)NC(=O)[C@H](CCCCN)NC(=O)[C@H](CO)NC(=O)[C@H](CC(C)C)NC(=O)[C@H](CC(=O)O)NC(=O)[C@H](CO)NC(=O)[C@@H](NC(=O)[C@H](Cc1ccccc1)NC(=O)[C@@H](NC(=O)CNC(=O)[C@H](Cc1c[nH]cn1)NC(=O)C1(NC(=O)[C@@H](N)Cc2c[nH]cn2)CCC1)[C@@H](C)O)[C@@H](C)O)C(=O)N[C@@H](CCC(=O)O)C(=O)N[C@@H](CO)C(=O)N[C@@H](CCCNC(=N)N)C(=O)N[C@@H](CCCNC(=N)N)C(=O)N[C@@H](C)C(=O)N[C@@H](CCC(N)=O)C(=O)N[C@@H](CC(=O)O)C(=O)N[C@@H](Cc1ccccc1)C(=O)N[C@H](C(=O)N[C@@H](CCC(N)=O)C(=O)N[C@@H](Cc1c[nH]c2ccccc12)C(=O)N[C@@H](CC(C)C)C(=O)N[C@@H](CC(C)C)C(=O)N[C@@H](CCCCNC(=O)CNC(=O)[C@H](CO)NC(=O)[C@H](CCC(=O)O)NC(=O)CNC(=O)[C@H](CO)NC(=O)CC[C@H](NC(=O)CC[C@H](NC(=O)CCCCCCCCCCCCCCCCC(=O)O)C(=O)O)C(=O)O)C(=O)N[C@H](C(N)=O)[C@@H](C)O)C(C)C [Example 35, N^ε28-[2-[[(2S)-2-[[(2S)-4-carboxy-2-[[2-[[(2S)-2-[[(4S)-4-carboxy-4-[[(4S)-4-carboxy-4-(17-carboxyheptadecanoylamino)butanoyl]amino]butanoyl]amino]-3-hydroxypropanoyl]amino]acetyl]amino]butanoyl]amino]-3-hydroxypropanoyl]amino]acetyl]-[Acb2,His3,Leu10,Glu15, Leu27,Lys28]-Glucagon amide] (I: H-H[Ac4c]HGTFTSDLSKYLESRRAQDFVQWLLKT-NH2 / II: {C18 diacid-γGlu-γGlu}-SGESG; amide I:28-II:C; N-terminus assumed)
